Experimental data reported in PMC8776063, “Aurora Kinase A Is Involved in Controlling the Localization of Aquaporin-2 in Renal Principal Cells” (International Journal of Molecular Sciences, 2022).
Read-outs that look alike come from different tables or passages of the source.

How the values were obtained:
BMX = target: T1, BMX (Homo sapiens, UniProt P51813); assay: Thermal shift assay; format: binding; settings: read-out: ΔTm BMX
T1 construct: purchased in-house thermal shift (DSF) kinase panel (SGC Frankfurt); Promega NanoBRET for AURKA/B/C

BRAF = target: T2, BRAF (Homo sapiens, UniProt P15056); assay: Thermal shift assay; format: binding; settings: read-out: ΔTm BRAF
T2 construct: purchased in-house thermal shift (DSF) kinase panel (SGC Frankfurt); Promega NanoBRET for AURKA/B/C

CHEK2 = target: T3, CHEK2 (Homo sapiens, UniProt O96017); assay: Thermal shift assay; format: binding; settings: read-out: ΔTm CHEK2
T3 construct: purchased in-house thermal shift (DSF) kinase panel (SGC Frankfurt); Promega NanoBRET for AURKA/B/C

DAPK3 = target: T4, DAPK3 (Homo sapiens, UniProt O43293); assay: Thermal shift assay; format: binding; settings: read-out: ΔTm DAPK3
T4 construct: purchased in-house thermal shift (DSF) kinase panel (SGC Frankfurt); Promega NanoBRET for AURKA/B/C

EPHA2 = target: T5, EPHA2 (Homo sapiens, UniProt P29317); assay: Thermal shift assay; format: binding; settings: read-out: ΔTm EPHA2
T5 construct: purchased in-house thermal shift (DSF) kinase panel (SGC Frankfurt); Promega NanoBRET for AURKA/B/C
T5 sequence (P29317 596-900): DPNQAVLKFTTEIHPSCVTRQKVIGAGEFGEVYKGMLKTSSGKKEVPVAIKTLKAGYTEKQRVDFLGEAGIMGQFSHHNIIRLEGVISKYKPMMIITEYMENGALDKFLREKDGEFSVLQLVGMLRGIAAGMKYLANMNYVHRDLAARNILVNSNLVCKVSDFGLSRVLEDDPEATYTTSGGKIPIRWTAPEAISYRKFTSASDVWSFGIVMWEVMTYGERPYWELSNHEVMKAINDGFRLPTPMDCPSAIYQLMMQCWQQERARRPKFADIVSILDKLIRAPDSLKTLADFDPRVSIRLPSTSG

STK26 = target: T6, STK26 (Homo sapiens, UniProt Q9P289); assay: Thermal shift assay; format: binding; settings: read-out: ΔTm STK26
T6 construct: purchased in-house thermal shift (DSF) kinase panel (SGC Frankfurt); Promega NanoBRET for AURKA/B/C

ULK3 = target: T7, ULK3 (Homo sapiens, UniProt Q6PHR2); assay: Thermal shift assay; format: binding; settings: read-out: ΔTm ULK3
T7 construct: purchased in-house thermal shift (DSF) kinase panel (SGC Frankfurt); Promega NanoBRET for AURKA/B/C
T7 sequence (Q6PHR2 1-277): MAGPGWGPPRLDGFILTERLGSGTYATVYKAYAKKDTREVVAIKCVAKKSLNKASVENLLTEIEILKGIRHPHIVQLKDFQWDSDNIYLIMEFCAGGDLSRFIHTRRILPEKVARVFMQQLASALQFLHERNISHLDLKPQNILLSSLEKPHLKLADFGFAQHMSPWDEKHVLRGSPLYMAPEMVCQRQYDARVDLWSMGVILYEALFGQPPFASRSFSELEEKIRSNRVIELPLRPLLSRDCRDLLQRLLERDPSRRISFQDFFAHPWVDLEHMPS

primary IMCD cells = assay: AQP2 redistribution, immunofluorescence microscopy; settings: for inhibition of the AVP-induced redistribution of AQP2 to the plasma membrane: 1 h (Aurora-A inhibitor I 1-30 µM)
[1] = system: CFL1 phosphorylation in primary IMCD cells; assay: CFL1 phosphorylation, Western blotting; format: cell-based, rat; settings: compound 20 µM, 1 h
AURKA = settings: cited from earlier work
[2] = system: complex of AURKA and TPX2; set-up: method as in PMID 26732741; settings: cited from earlier work
HCT116 = system: HCT116; set-up: method as in PMID 19402633, PMID 30097580; settings: colon cancer cell line HCT116; cited from earlier work
[3] = system: ARID1A-deficient colorectal cancer cells; set-up: method as in PMID 30097580; settings: cited from earlier work
[4] = compound 20 µM, AVP 100 nM, 30 min

T6 sequence (Q9P289 1-300): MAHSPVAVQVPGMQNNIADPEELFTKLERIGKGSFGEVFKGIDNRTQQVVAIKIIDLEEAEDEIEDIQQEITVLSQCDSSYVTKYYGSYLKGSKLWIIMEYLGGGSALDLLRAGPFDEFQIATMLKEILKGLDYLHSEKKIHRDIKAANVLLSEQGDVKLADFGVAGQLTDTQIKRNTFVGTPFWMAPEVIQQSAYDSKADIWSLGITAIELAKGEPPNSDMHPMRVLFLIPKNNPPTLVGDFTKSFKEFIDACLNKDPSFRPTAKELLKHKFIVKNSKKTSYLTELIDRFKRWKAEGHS
T3 sequence (O96017 210-531): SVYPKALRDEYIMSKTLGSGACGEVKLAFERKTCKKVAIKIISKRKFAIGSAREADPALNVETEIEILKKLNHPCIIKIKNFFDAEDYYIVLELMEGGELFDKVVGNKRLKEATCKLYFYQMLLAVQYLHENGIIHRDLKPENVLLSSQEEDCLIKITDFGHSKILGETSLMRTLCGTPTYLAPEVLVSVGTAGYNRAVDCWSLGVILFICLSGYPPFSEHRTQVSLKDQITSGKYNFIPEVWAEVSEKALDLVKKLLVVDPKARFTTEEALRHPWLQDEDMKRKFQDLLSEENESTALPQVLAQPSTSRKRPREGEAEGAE
T1 sequence (P51813 411-675): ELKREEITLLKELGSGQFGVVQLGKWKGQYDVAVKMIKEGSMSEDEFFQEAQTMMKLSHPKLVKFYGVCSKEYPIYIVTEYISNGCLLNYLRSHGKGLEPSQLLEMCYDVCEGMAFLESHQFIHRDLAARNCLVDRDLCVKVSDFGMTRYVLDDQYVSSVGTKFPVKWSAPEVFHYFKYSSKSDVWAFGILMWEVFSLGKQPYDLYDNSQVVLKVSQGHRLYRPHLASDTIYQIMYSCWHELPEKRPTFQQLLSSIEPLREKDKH
T2 sequence (P15056 448-723): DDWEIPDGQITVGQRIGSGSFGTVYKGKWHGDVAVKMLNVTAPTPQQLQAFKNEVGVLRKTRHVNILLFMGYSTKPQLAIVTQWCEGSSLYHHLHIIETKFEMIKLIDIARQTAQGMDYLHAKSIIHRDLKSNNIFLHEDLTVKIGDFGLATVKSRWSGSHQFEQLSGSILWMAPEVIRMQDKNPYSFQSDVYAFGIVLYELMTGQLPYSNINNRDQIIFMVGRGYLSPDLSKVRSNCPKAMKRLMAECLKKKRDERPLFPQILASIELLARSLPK
T4 sequence (O43293 9-289): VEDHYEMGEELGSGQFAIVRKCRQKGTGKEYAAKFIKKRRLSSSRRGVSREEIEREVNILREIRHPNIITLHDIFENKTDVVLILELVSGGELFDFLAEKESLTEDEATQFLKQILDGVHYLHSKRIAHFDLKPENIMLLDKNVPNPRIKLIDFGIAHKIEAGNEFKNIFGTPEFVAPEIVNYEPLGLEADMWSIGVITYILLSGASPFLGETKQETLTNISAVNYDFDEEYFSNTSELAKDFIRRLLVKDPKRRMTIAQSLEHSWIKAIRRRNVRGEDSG

SMILES	ΔTm at 10 µM (BMX; compound 10 µM, n = 3)	ΔTm at 10 µM (BRAF; compound 10 µM, n = 3)	ΔTm at 10 µM (CHEK2; compound 10 µM, n = 3)	ΔTm at 10 µM (DAPK3; compound 10 µM, n = 3)	ΔTm at 10 µM (EPHA2; compound 10 µM, n = 3)	ΔTm at 10 µM (STK26; compound 10 µM, n = 3)	ΔTm at 10 µM (ULK3; compound 10 µM, n = 3)	inhibition of the AVP-induced redistribution of AQP2 to the plasma membrane (primary IMCD cells; [4])	also measured
CCN1CCN(C(=O)Cc2ccc(Nc3ncc(F)c(Nc4ccc(C(=O)O)cc4)n3)cc2)CC1 [ERJ2-12]	0.9 °C	0.7 °C	0.3 °C	0.7 °C	1.6 °C	-0.2 °C	4.3 °C	significantly differed	–
NC(=O)Cc1ccc(Nc2ncc(F)c(Nc3ccc(C(=O)Nc4ccccc4Cl)cc3)n2)cc1 [ERJ2-06]	2.1 °C	0.5 °C	3.5 °C	4.8 °C	0.8 °C	1.7 °C	9.4 °C	no significant difference between resting and AVP-stimulated cells	–
CCN1CCN(C(=O)Cc2ccc(Nc3ncc(F)c(Nc4ccc(C(=O)Nc5ccccc5Cl)cc4)n3)cc2)CC1 [Aurora-A inhibitor I, reference compound]	–	–	–	–	–	–	–	inhibits	ΔTm at 10 µM (BMX): 2.1 °C; ΔTm at 10 µM (BRAF): 1.1 °C; ΔTm at 10 µM (CHEK2): 2.2 °C; ΔTm at 10 µM (DAPK3): 2.8 °C; ΔTm at 10 µM (EPHA2): 1.4 °C; ΔTm at 10 µM (STK26): 0.6 °C; ΔTm at 10 µM (ULK3): 7.6 °C; CFL1 phosphorylation [1]: Relatively low levels; IC50 (AURKA; cell-free assay): 3.4 nM; selectivity for AURKA over AURKB (AURKA): 1000 fold; increase of binding to the AURKA-TPX2 complex [2]: 2.4 fold; antiproliferative effects (HCT116): Antiproliferative effects; cell cycle arrest, multinucleation and apoptosis [3]: G2/M cell cycle arrest, multinucleation, and apoptosis; effective concentration for inhibition of AQP2 redistribution (primary IMCD cells; 1, 10 or 30 µM, 1 h, AVP 100 nM, 30 min): greater than 1 µM
CCN1CCN(C(=O)Cc2ccc(Nc3ncc(F)c(Nc4ccc(C(=O)Nc5ccccc5)cc4)n3)cc2)CC1 [ERJ2-11]	2.7 °C	1.8 °C	3.6 °C	3.5 °C	1.8 °C	1.3 °C	9.8 °C	no significant difference between resting and AVP-stimulated cells	AQP2 fluorescence intensity ratio compared to DMSO-treated control cells (primary IMCD cells; compound 20 µM, 1 h): significant decrease
O=C(Cc1ccc(Nc2ncc(F)c(Nc3ccc(C(=O)Nc4ccccc4Cl)cc3)n2)cc1)NCCN1CCOCC1 [ERJ2-04]	1.5 °C	0.8 °C	1.2 °C	2.4 °C	0.3 °C	0.4 °C	6.2 °C	no significant difference between resting and AVP-stimulated cells	–
